In patent publication US7074596B2, “Synthesis and use of anti-reverse mRNA cap analogues” (Board of Supervisors of Louisiana State University And …, priority 2002, dated 2006):

Assays:
SP6 polymerase = target: T1, SP6 polymerase (Enterobacteria phage SP6, UniProt P06221); assay: Analysis of cap orientation in in vitro-synthesized RNA transcripts by RNase T2 + TAP digestion and anion exchange HPLC; assay type: biochemical, bacteriophage SP6; details: for Product observed RNase T2 + TAP: 7-methylated pGp* product (reverse orientation of the cap) / Product observed RNase T2 + TAP: pGp* (normal orientation of the cap): short RNA (43 bases) from Ncol-digested pSP-luc+, [α-32P]ATP, share of 5′ end labeled digestion product; for Orientation of incorporation into RNA (in words): RNase T2 and TAP digestion, HPLC, FIG. 2
T1 construct: purchased Promega
T1 sequence (P06221 1-874): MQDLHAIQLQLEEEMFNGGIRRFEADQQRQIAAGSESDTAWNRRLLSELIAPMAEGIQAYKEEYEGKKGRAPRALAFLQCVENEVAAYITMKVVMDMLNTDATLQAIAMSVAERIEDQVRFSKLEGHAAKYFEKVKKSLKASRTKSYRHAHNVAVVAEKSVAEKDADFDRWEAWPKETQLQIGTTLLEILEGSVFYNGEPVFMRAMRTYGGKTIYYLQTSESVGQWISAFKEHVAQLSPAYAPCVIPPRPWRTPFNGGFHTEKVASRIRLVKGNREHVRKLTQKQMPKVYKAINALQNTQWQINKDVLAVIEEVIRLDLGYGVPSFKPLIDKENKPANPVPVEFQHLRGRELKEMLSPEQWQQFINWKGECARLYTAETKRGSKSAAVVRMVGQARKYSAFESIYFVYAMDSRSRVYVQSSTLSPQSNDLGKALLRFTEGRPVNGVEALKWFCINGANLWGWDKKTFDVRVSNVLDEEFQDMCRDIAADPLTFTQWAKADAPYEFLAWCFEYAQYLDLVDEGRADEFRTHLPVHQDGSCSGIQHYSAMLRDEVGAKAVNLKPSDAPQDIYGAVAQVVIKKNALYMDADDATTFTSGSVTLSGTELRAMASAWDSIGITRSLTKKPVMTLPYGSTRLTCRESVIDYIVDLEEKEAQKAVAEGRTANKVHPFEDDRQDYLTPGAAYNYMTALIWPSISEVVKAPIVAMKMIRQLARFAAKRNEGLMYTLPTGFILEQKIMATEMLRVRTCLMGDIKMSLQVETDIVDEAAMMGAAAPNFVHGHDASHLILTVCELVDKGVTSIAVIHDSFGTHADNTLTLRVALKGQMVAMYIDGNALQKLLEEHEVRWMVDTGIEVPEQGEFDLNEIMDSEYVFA
Experimental: Mono- and dinucleotides obtained by enzymatic digestion of in vitro-synthesized RNAs were analyzed by HPLC using a Waters 625 instrument with a 996 PDA detector on a 4.5×250 mm Partisil 10SAX/25 column (Whatman). The program for elution of nucleotides comprised water for the first 5 min; a linear gradient of […]; a linear gradient of 87.5 to 500 mM of KH2PO4 over 30 min; and isocratic elution at 500 mM KH2PO4 for 21 min—all at a flow rate of 1 mL/min.
Two lengths of RNA, either uncapped or capped with one of the cap analogues, were synthesized by in vitro transcription. The DNA template used for both lengths of RNA was pSP−luc+ (Promega), which contains an SP6 bacteriophage promoter and a sequence encoding luciferase. To generate the short RNAs (43 bases exclusive of the cap), the plasmid was digested with Ncol. To generate the long RNAs (1706 bases, containing the entire luciferase coding region), the plasmid was digested with EcoRl. A typical 20 μL in vitro transcription reaction contained 40 mM Tris-HCl, pH 7.9, 6 mM MgCl2, 2 mM spermidine, 10 mM DTT, 2 μg BSA, 20 units of RNasin (Promega), 0.5 mM ATP, 0.5 mM CTP, 0.5 mM UTP, 0.1 mM GTP, 1 mM cap analogue (GpppG, m7GpppG, m^73′dGpppG, or m2^7,O3′GpppG), 0.2–1.0 μg DNA, and 20 units of SP6 polymerase (Promega). Reactions to synthesize the short RNAs also contained 28 μCi of [α-^32P]ATP (ICN), and those to synthesize the long RNAs contained 0.8 μCi of [α-^32P]CTP (ICN). Reaction mixtures were incubated for 60 min at 37° C., extracted with phenol and chloroform, and the solution was made 2 M in sodium acetate. The nucleic acids were then precipitated with 3 volumes of ethanol on dry ice for 5 min, and the mixture was centrifuged at 14,000 rpm for 30 min. The resulting pellet was dissolved in water, and the solution was made 0.2 M in sodium acetate. The nucleic acid was precipitated with 2.5 volumes of ethanol at 4° C. for 30 min, and the mixture was centrifuged at 14,000 rpm for 30 min. The pellet was allowed to air-dry and then dissolved in diethylpyrocarbonate-treated water.
The short RNAs were digested with 67 U RNase T2 (Life Technologies) in 15 μL of 0.14 M sodium acetate, pH 4.6, at 37° C. for 60 min. In some cases, the RNAs were subjected to a two-step digestion instead. The first digestion was with 10 U TAP (tobacco acid pyrophosphatase) (Epicentre Technologies) in 5 μL of 50 mM sodium acetate, pH 6.0, 1 mM EDTA, 0.1% β-mercaptoethanol, and 0.01% Triton X-100 at 37° C. for 60 min. The digestion was continued for 60 min at 37° C. with 67 U RNase T2 in a final volume of 16 μL of 0.12 M sodium acetate, pH 4.6. Samples were analyzed without further treatment by anion exchange HPLC as described above.
The structure of the ARCAs was designed to prevent incorporation into RNA in the reverse orientation. […] To obtain a higher proportion of radioactivity in the cap versus the internal positions, a shorter DNA template was produced by cleaving pSP−luc+ with Ncol instead of EcoRl. This digestion was expected to yield an RNA product of 43 bases (plus the cap).
RNase T2 digests RNA with no base specificity. Thus, it was expected to generate primarily 3′-NMPs from this RNA. Those nucleotide residues that were located 5′ to an A residue would acquire a ^32P-labeled 3′-phosphate by nearest-neighbor transfer. The pyrophosphate bonds in the cap, however, are not susceptible to RNase T2. Since the first nucleotide residue after the cap in the synthetic RNA is an A, the α-phosphate of [α-^32P]ATP would be transferred to the cap following RNase T2 digestion.

elF4E = target: T2, elF4E (Oryctolagus cuniculus, UniProt P29338); assay: Competitive inhibition of cell-free translation of globin mRNA in the RRL system; assay type: biochemical, rabbit; details: FIG. 3
T2 construct: A micrococcal nuclease-treated RRL (rabbit reticulocyte lysate) system was used for in vitro translation; from tissue; host or cells: rabbit reticulocyte lysate, micrococcal nuclease-treated
T2 sequence (P29338 whole entry): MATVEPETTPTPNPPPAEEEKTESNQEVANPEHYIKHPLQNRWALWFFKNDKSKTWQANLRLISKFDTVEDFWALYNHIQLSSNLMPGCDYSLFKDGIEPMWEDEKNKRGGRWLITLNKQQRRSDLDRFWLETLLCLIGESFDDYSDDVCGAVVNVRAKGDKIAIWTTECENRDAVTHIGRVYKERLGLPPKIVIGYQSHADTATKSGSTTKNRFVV
Experimental: The ability of cap analogues to inhibit cell-free translation in the RRL system programmed with globin mRNA was measured as described in Cai et al. (1999). Data were fit by least squares minimization to a theoretical rate equation.
We separately tested GpppG, m^7GpppG, and the two ARCAs for their ability to compete with natural globin mRNA for recognition by the translational machinery, and thereby to inhibit translation in an RRL system. […] Natural rabbit globin mRNA was translated at 5 μg/mL in the RRL system, and globin synthesis was detected by incorporation of [^3H]Leu into protein.

[1] = system: RRL (rabbit reticulocyte lysate) system; assay: Translation of capped luciferase mRNAs in the RRL system (luciferase activity); assay type: biochemical; details: translated 60 min in RRL, slope of luciferase activity versus mRNA concentration, FIG. 4
Text: Two lengths of RNA, either uncapped or capped with one of the cap analogues, were synthesized by in vitro transcription. The DNA template used for both lengths of RNA was pSP−luc+ (Promega), which contains an SP6 bacteriophage promoter and a sequence encoding luciferase. To generate the short RNAs (43 bases exclusive of the cap), the plasmid was digested with Ncol. To generate the long RNAs (1706 bases, containing the entire luciferase coding region), the plasmid was digested with EcoRl. […]
A micrococcal nuclease-treated RRL (rabbit reticulocyte lysate) system was used for in vitro translation as described in A. Cai et al., “Quantitative assessment of mRNA cap analogs as inhibitors of in vitro translation,” Biochemistry, vol.38, pp. 8538–8547 (1999). In some cases, the mRNA used in this system was natural rabbit globin mRNA, and protein synthesis was measured by incorporation of [^3H]Leu into a trichloroacetic acid-precipitable form. […]
FIG. 4 depicts the translational activity of the ARCA-capped mRNAs. […] The RNAs were translated for 60 min in the RRL system, and luciferase activity was measured in triplicate by luminometry (RLU, relative light units). […]

| SMILES | Extent of reverse capping (SP6 polymerase; experiments of FIG. 2 and Table 3) | Product observed RNase T2 + TAP: 7-methylated pGp* product (reverse orientation of the cap) (SP6 polymerase) [%] | Product observed RNase T2 + TAP: pGp* (normal orientation of the cap) (SP6 polymerase) [%] | Ki (elF4E; natural rabbit globin mRNA 5 μg/mL, [3H]Leu incorporation, least-squares fit of translation data, read-out: Kl, dissociation constant for the cap analogue•elF4E complex) [µM] | Inhibition of translation (in words) (elF4E; natural rabbit globin mRNA in RRL system) | Orientation of incorporation into RNA (in words) (SP6 polymerase) | Translational efficiency of capped luciferase mRNA (in words) [1] |
| --- | --- | --- | --- | --- | --- | --- | --- |
| Cn1c[n+](C2OC(COP(=O)(O)OP(=O)(O)OP(=O)(O)OCC3OC(n4cnc5c(=O)[nH]c(N)nc54)C(O)C3O)C(O)C2O)c2nc(N)nc([O-])c21 (centres unmarked) [m^7GpppG, m^7G(5′)ppp(5′)G, reference compound] | approximately 33% | 33 | 67 | 27.8 ± 12.6 | – | – | – |
| Nc1nc2c(ncn2[C@@H]2O[C@H](COP(=O)(O)OP(=O)(O)OP(=O)(O)OC[C@H]3O[C@@H](n4cnc5c(=O)[nH]c(N)nc54)[C@H](O)[C@@H]3O)[C@@H](O)[C@H]2O)c(=O)[nH]1 [GpppG, reference compound] | – | – | 100 | – | did not act as an inhibitor | – | – |
| C[n+]1cn([C@@H]2O[C@H](COP(=O)(O)OP(=O)(O)OP(=O)(O)OC[C@H]3O[C@@H](n4cnc5c(=O)[nH]c(N)nc54)[C@H](O)[C@@H]3O)C[C@H]2O)c2nc(N)[nH]c(=O)c21 [m^73′dGpppG, P^1-3′-Deoxy-7-methylguanosine-5′ P^3-guanosine-5′triphosphate] | – | 0 | 100 | – | – | incorporated in only a single orientation | more efficient in translation than m^7GpppG-capped mRNA |
| CO[C@H]1[C@@H](O)[C@H](n2c[n+](C)c3c(=O)[nH]c(N)nc32)O[C@@H]1COP(=O)(O)OP(=O)(O)OP(=O)(O)OC[C@H]1O[C@@H](n2cnc3c(=O)[nH]c(N)nc32)[C@H](O)[C@@H]1O [m2^7,O3′GpppG, P^1-3′-O, 7-Dimethylguanosine-5′P^3-guanosine-5′triphosphate] | – | 0 | 100 | – | – | incorporated in only one orientation | more efficient in translation than m^7GpppG-capped mRNA |
